Measurements from ChEMBL document CHEMBL2321810, “QSAR investigation of NaV1.7 active compounds using the SVM/Signature approach and the Bioclipse Modeling platform” (Bioorg Med Chem Lett, 2013).

target: Sodium channel protein type 9 subunit alpha (Homo sapiens, UniProt Q15858); assay: cell-based
Sequence (Q15858 whole entry): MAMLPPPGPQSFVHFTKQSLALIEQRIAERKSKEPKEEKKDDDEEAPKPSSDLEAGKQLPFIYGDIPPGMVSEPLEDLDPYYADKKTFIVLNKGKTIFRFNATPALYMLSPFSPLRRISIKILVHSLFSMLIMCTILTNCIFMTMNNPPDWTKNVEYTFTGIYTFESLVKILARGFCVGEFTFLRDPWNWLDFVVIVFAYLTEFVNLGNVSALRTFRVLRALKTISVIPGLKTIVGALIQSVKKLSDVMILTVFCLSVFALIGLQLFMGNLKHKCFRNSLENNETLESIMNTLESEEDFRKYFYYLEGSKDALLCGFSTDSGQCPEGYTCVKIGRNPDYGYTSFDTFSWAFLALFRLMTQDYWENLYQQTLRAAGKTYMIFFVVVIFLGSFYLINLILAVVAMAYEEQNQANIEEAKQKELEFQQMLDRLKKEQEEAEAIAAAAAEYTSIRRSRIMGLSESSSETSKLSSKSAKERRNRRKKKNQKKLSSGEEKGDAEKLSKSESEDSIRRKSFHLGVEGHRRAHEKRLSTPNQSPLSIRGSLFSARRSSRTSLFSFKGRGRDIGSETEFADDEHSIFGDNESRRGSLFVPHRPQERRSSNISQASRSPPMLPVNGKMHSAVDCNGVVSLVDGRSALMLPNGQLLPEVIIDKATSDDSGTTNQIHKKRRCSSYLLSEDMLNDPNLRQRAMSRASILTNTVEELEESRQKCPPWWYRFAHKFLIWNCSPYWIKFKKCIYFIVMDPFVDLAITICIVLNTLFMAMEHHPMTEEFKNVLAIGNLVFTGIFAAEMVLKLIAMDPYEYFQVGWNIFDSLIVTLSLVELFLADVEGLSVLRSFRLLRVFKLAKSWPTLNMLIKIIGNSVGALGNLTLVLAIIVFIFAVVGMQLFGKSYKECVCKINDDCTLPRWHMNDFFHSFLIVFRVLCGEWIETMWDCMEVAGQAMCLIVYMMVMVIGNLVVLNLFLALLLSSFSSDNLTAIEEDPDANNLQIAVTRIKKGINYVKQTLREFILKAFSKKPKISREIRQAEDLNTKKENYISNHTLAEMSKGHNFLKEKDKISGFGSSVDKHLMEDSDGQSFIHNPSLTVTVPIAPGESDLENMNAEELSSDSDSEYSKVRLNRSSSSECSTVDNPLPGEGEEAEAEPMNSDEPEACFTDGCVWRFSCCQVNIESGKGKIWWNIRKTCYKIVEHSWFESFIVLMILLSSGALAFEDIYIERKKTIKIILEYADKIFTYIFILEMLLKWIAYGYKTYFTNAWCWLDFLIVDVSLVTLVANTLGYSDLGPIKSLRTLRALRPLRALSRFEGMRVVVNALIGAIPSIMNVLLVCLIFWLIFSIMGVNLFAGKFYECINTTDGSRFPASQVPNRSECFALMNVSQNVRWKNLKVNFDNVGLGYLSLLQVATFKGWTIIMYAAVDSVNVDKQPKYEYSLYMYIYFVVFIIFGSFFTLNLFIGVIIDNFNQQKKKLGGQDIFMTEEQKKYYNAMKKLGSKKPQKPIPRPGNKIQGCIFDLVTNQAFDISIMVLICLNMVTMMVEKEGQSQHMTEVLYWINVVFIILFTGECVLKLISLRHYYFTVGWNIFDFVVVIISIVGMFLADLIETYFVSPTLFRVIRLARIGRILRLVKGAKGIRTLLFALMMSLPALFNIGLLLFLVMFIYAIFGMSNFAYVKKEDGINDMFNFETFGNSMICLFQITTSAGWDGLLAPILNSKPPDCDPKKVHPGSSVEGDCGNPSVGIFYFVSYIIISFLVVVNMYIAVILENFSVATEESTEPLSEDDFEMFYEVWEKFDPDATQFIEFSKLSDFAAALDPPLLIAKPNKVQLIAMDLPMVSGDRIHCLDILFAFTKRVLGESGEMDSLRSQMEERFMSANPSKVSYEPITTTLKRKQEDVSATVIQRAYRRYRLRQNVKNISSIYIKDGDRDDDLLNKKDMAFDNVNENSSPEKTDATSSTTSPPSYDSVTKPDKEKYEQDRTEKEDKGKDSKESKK

**Q.** How did the IC50 turn out when `N#Cc1cc(S(=O)(=O)Nc2ccc(F)cn2)ccc1Oc1ccc(CN2CCC2)c(F)c1` was run?
**A.** The IC50 was 30 µM.

**Q.** Which IC50 does the source give for `Cc1nc(-c2ccccc2Oc2ccc(S(=O)(=O)Nc3ccc(F)cn3)cc2C#N)cs1` here?
**A.** Its IC50 is 30 µM.

**Q.** `COc1cc(Oc2ccc(S(=O)(=O)Nc3ccc(F)cn3)cc2C#N)ccc1-n1cnc(C)c1` was tested. Which IC50 did it give?
**A.** Its IC50 is 30 µM.

**Q.** `N#Cc1cc(S(=O)(=O)Nc2ncns2)ccc1Oc1ccc(C(F)(F)F)cc1C1CCOCC1` was tested. Which IC50 did it give?
**A.** Its IC50 is 0.0088 µM.

**Q.** How did the IC50 turn out when `N#Cc1ccc(Oc2cc(F)c(S(=O)(=O)Nc3ncns3)cc2Cl)c(-c2ccn[nH]2)c1` was run?
**A.** The IC50 was 0.0094 µM.

**Q.** For `N#Cc1cc(S(=O)(=O)Nc2ncc(Cl)s2)ccc1Oc1ccc(F)cc1-c1cccc(N)n1`, which IC50 is on record?
**A.** Its IC50 is 0.01 µM.

**Q.** For `CCn1nc(C(F)(F)F)cc1-c1ccc(Oc2ccc(S(=O)(=O)Nc3ncccc3F)cc2C#N)cc1`, which IC50 is on record?
**A.** The IC50 was 14 µM.

**Q.** `N#Cc1ccc(NS(=O)(=O)c2ccc(Oc3ccccc3-c3ccccc3)c(C#N)c2)nc1` was tested. Which IC50 did it give?
**A.** Its IC50 is 25 µM.

**Q.** Which IC50 does the source give for `Cn1nccc1-c1cc(Cl)ccc1Oc1ccc(S(=O)(=O)Nc2cncnc2)cc1C#N` here?
**A.** Its IC50 is 30 µM.

**Q.** `O=S(=O)(Nc1nccs1)c1ccc(Oc2ccc(Oc3ccccc3)cc2)c(F)c1` was tested. Which IC50 did it give?
**A.** Its IC50 is 10 µM.

**Q.** `Cc1cc(Oc2ccc(S(=O)(=O)Nc3ncc(Cl)s3)cc2C#N)n(C2CCCCC2)n1` was tested. Which IC50 did it give?
**A.** Its IC50 is 10 µM.

**Q.** Which IC50 does the source give for `N#Cc1cc(S(=O)(=O)Nc2nccs2)ccc1Oc1ccccc1-c1ccno1` here?
**A.** Its IC50 is 10 µM.

**Q.** How did the IC50 turn out when `N#Cc1cc(S(=O)(=O)Nc2nccs2)ccc1Oc1ccccc1-c1nncn1-c1ccccc1` was run?
**A.** The IC50 was 10 µM.

**Q.** How did the IC50 turn out when `N#Cc1cc(S(=O)(=O)Nc2nccs2)ccc1Oc1cc(C2CC2)nn1-c1ccccn1` was run?
**A.** Its IC50 is 10 µM.

**Q.** Which IC50 does the source give for `O=S(=O)(Nc1cscn1)c1ccc(Oc2cc(C(F)(F)F)nn2-c2ccccc2)c(F)c1` here?
**A.** The IC50 was 10 µM.

**Q.** Which IC50 does the source give for `CCn1nc(C(F)(F)F)cc1-c1ccc(Oc2ccc(S(=O)(=O)Nc3ccc(C#N)cn3)cc2C#N)cc1` here?
**A.** Its IC50 is 10 µM.

**Q.** For `Cc1cncnc1NS(=O)(=O)c1ccc(Oc2ccccc2-c2ccccc2)c(C#N)c1`, which IC50 is on record?
**A.** The IC50 was 10 µM.

**Q.** `Cc1cnc(NS(=O)(=O)c2ccc(Oc3ccccc3-c3ccccc3)c(C#N)c2)nc1` was tested. Which IC50 did it give?
**A.** Its IC50 is 10 µM.

**Q.** With `N#Cc1cnc(NS(=O)(=O)c2ccc(Oc3ccccc3-c3ccccc3)c(C#N)c2)nc1` as the molecule, how does the IC50 read?
**A.** The IC50 was 10 µM.

**Q.** For `CC(C)(C)n1ccc(-c2c(F)cccc2Oc2ccc(S(=O)(=O)Nc3ncns3)cc2C#N)n1`, which IC50 is on record?
**A.** The IC50 was 10 µM.

**Q.** With `N#Cc1cnc(NS(=O)(=O)c2ccc(Oc3ccccc3-c3ccccc3)c(C#N)c2)s1` as the molecule, how does the IC50 read?
**A.** Its IC50 is 12.2 µM.

**Q.** With `N#Cc1cc(S(=O)(=O)Nc2ncns2)ccc1Oc1cccc(Br)c1-c1cn[nH]c1` as the molecule, how does the IC50 read?
**A.** The IC50 was 0.007 µM.

**Q.** With `O=S(=O)(Nc1ncns1)c1cc(F)c(Oc2ccc(Cl)cc2C2CCNCC2)cc1F` as the molecule, how does the IC50 read?
**A.** The IC50 was 0.0084 µM.

**Q.** How did the IC50 turn out when `O=S(=O)(Nc1cscn1)c1cc(F)c(Oc2ccc(Cl)cc2-c2ccnc(N3CCNCC3)c2)cc1F` was run?
**A.** The IC50 was 0.0037 µM.

**Q.** With `CNc1ncc(Oc2ccc(S(=O)(=O)Nc3ncns3)cc2C#N)c(-c2ccc(F)cc2)n1` as the molecule, how does the IC50 read?
**A.** The IC50 was 12.5 µM.

**Q.** For `Cc1cnc(NS(=O)(=O)c2ccc(Oc3ccc(Cl)cc3-c3ccnn3C)c(C#N)c2)cn1`, which IC50 is on record?
**A.** Its IC50 is 10 µM.

**Q.** With `Cn1nccc1NS(=O)(=O)c1ccc(Oc2ccc(Cl)cc2-c2ccnn2C)c(C#N)c1` as the molecule, how does the IC50 read?
**A.** Its IC50 is 10 µM.

**Q.** `Cc1nonc1NS(=O)(=O)c1ccc(Oc2ccc(Cl)cc2-c2ccnn2C)c(C#N)c1` was tested. Which IC50 did it give?
**A.** Its IC50 is 10 µM.

**Q.** For `COc1nccnc1NS(=O)(=O)c1ccc(Oc2ccc(Cl)cc2-c2ccnn2C)c(C#N)c1`, which IC50 is on record?
**A.** The IC50 was 10 µM.

**Q.** `Cn1nccc1-c1cc(Cl)ccc1Oc1ccc(S(=O)(=O)Nc2cc[nH]n2)cc1C#N` was tested. Which IC50 did it give?
**A.** Its IC50 is 10 µM.

**Q.** How did the IC50 turn out when `Cn1nccc1-c1cc(Cl)ccc1Oc1ccc(S(=O)(=O)Nc2cccnc2)cc1C#N` was run?
**A.** Its IC50 is 10 µM.

**Q.** `N#Cc1cc(S(=O)(=O)Nc2cnoc2)ccc1Oc1ccccc1-c1ccccc1` was tested. Which IC50 did it give?
**A.** Its IC50 is 10 µM.

**Q.** `N#Cc1cc(S(=O)(=O)Nc2nccs2)ccc1Oc1ccc(-c2cnn(CC(F)(F)F)c2N)cc1` was tested. Which IC50 did it give?
**A.** Its IC50 is 10 µM.

**Q.** How did the IC50 turn out when `CCc1nsc(NS(=O)(=O)c2ccc(Oc3ccccc3-c3ccccc3)c(C#N)c2)n1` was run?
**A.** Its IC50 is 10 µM.

**Q.** `N#Cc1cc(S(=O)(=O)Nc2ncns2)ccc1Oc1cnc(N)nc1-c1ccc(Cl)cc1` was tested. Which IC50 did it give?
**A.** Its IC50 is 10 µM.

**Q.** With `N#Cc1cc(S(=O)(=O)Nc2ncns2)ccc1Oc1nccnc1-c1ccccc1` as the molecule, how does the IC50 read?
**A.** The IC50 was 10 µM.

**Q.** Which IC50 does the source give for `N#Cc1cc(S(=O)(=O)Nc2ncns2)ccc1Oc1nnccc1-c1ccccc1` here?
**A.** The IC50 was 10 µM.

**Q.** With `N#Cc1cc(S(=O)(=O)Nc2ncns2)ccc1Oc1ccccc1Oc1ccccc1C(N)=O` as the molecule, how does the IC50 read?
**A.** Its IC50 is 10 µM.

**Q.** For `N#Cc1cc(S(=O)(=O)Nc2ncco2)ccc1Oc1ccccc1-c1ccccc1`, which IC50 is on record?
**A.** Its IC50 is 10 µM.

**Q.** `CC(C)c1nsc(NS(=O)(=O)c2ccc(Oc3ccccc3-c3ccccc3)c(C#N)c2)n1` was tested. Which IC50 did it give?
**A.** Its IC50 is 10 µM.

**Q.** Which IC50 does the source give for `N#Cc1cc(S(=O)(=O)Nc2ccccc2)ccc1Oc1ccccc1-c1ccccc1` here?
**A.** Its IC50 is 10 µM.

**Q.** With `N#Cc1cc(S(=O)(=O)Nc2cc(C(F)(F)F)ncn2)ccc1Oc1ccccc1-c1ccccc1` as the molecule, how does the IC50 read?
**A.** Its IC50 is 10 µM.

**Q.** Which IC50 does the source give for `N#Cc1cc(S(=O)(=O)Nc2ncsn2)ccc1Oc1ccccc1-c1ccccc1` here?
**A.** Its IC50 is 4.6 µM.

**Q.** `N#Cc1cc(S(=O)(=O)Nc2cnsn2)ccc1Oc1ccccc1-c1ccccc1` was tested. Which IC50 did it give?
**A.** Its IC50 is 5.68 µM.

**Q.** `Cc1ccc(Oc2ccc(S(=O)(=O)Nc3nccs3)cc2F)c(-c2ccn(C)n2)c1` was tested. Which IC50 did it give?
**A.** Its IC50 is 6.44 µM.

**Q.** `NCc1cc(-c2cc(Cl)ccc2Oc2cc(F)c(S(=O)(=O)Nc3ncns3)cc2Cl)ccn1` was tested. Which IC50 did it give?
**A.** Its IC50 is 0.0049 µM.

**Q.** `Nc1cc(-c2cc(OC(F)(F)F)ccc2Oc2cc(F)c(S(=O)(=O)Nc3ncns3)cc2F)ccn1` was tested. Which IC50 did it give?
**A.** Its IC50 is 0.0024 µM.

**Q.** Which IC50 does the source give for `N#Cc1cc(S(=O)(=O)Nc2nccs2)ccc1Oc1ccc(-c2ccc(C(F)(F)F)cn2)cc1` here?
**A.** Its IC50 is 3.3 µM.
